Assay results from patent publication US10851102B2, “Imidazole and triazole containing bicyclic compounds as JAK inhibitors” (THERAVANCE BIOPHARMA R&D IP, LLC, priority 2019, dated 2020).

Tests used:
JAK2 = JAK2 (Homo sapiens (Human), UniProt O60674); assay: Biochemical JAK and Tyk2 kinase assays (LanthaScreen): JAK2; settings: 1 h pre-incubation, ATP at Km, pIC50 converted to pKi by Cheng-Prusoff
Method: (§1) Assay 1: Biochemical JAK and Tyk2 Kinase Assays
(§2) A panel of four LanthaScreen JAK biochemical assays (JAK1, 2, 3 and Tyk2) were carried in a common kinase reaction buffer (50 mM HEPES, pH 7.5, 0.01% Brij-35, 10 mM MgCl2, and 1 mM EGTA). Recombinant GST-tagged JAK enzymes and a GFP-tagged STAT1 peptide substrate were obtained from Life Technologies.
(§3) Serially or discretely diluted compounds were pre-incubated with each of the four JAK enzymes and the substrate in white 384-well microplates (Corning) at ambient temperature for 1 h. ATP was subsequently added to initiate the kinase reactions in 10 μL total volume, with 1% DMSO. […] Kinase reactions were allowed to proceed for 1 hour at ambient temperature before a 10 μL preparation of EDTA (10 mM final concentration) and Tb-anti-pSTAT1 (pTyr701) antibody (Life Technologies, 2 nM final concentration) in TR-FRET dilution buffer (Life Technologies) was added. The plates were allowed to incubate at ambient temperature for 1 h before being read on the EnVision reader (Perkin Elmer). Emission ratio signals (520 nm/495 nm) were recorded and utilized to calculate the percent inhibition values based on DMSO and background controls.
(§4) For dose-response analysis, percent inhibition data were plotted vs. compound concentrations, and IC50 values were determined from a 4-parameter robust fit model with the Prism software (GraphPad Software). Results were expressed as pIC50 (negative logarithm of IC50) and subsequently converted to pKi (negative logarithm of dissociation constant, Ki) using the Cheng-Prusoff equation.

JAK1 = JAK1 (Homo sapiens (Human), UniProt P23458); assay: Biochemical JAK and Tyk2 kinase assays (LanthaScreen): JAK1; settings: 1 h pre-incubation, ATP at Km; pIC50 converted to pKi by Cheng-Prusoff
Method: as §1, §2, §3, §4

Caco-2 cell monolayers = assay: Caco-2 permeation assay; type: in vitro ADME, human; settings: 5 μM, A to B, + Verapamil 25 μM, 120 minutes
Source text: Assay 5: Caco-2 Permeation Assay

JAK3 = JAK3 (Homo sapiens (Human), UniProt P52333); assay: Biochemical JAK and Tyk2 kinase assays (LanthaScreen): JAK3; settings: for Ki / JAK 3 (pKi): 1 h pre-incubation, ATP at Km, pIC50 converted to pKi by Cheng-Prusoff; for Ki: read-out: JAK 3 (pKi) (converted); for JAK3 (pKi)-JAK1 (pKi): difference of pKi values, selectivity JAK3 over JAK1
Method: as §1, §2, §3, §4

[1] = tested on: IL-2 stimulated pSTAT5 in CD4+ T cells isolated from murine splenocytes (JAK3); assay: Inhibition of IL-2 stimulated pSTAT5 in CD4+ T cells isolated from murine splenocytes; type: cell-based; settings: Mus musculus, IL-2 7 ng/ml, read-out: pIC50, inhibition of IL-2 stimulated pSTAT5 (converted)
Method: Assay 3: Inhibition of IL-2 Stimulated pSTAT5 in CD4+ T Cells Isolated from Murine Splenocytes
The potency of test compounds for inhibition of interleukin-2 (IL-2) stimulated STATS phosphorylation was measured in the CD4+ T cells isolated from murine splenocytes using AlphaLisa. Because IL-2 signals through JAK3, this assay provides a measure of JAK3 cellular potency in mouse.
(§5) Phosphorylated STATS was measured via the AlphaLISA SureFire Ultra pSTAT5 (Tyr694/699) kit (PerkinElmer).
CD4+ T cells were isolated from murine splenocytes via negative selection on a magnetic column (Miltnyi Biotec) and re-suspended in assay media (phenol red-free DMEM (Life Technologies) supplemented with 10% FBS (ATCC)). Cells were seeded at 50,000 cells/well in assay media (2 μL/well). Compounds were serially diluted in DMSO and diluted to 2× final concentration in assay media. Compound was added (4 μl/well) and the cells incubated at 37° C., 5% CO2 for 1 hour, followed by the addition of IL-2 (R&D Systems; final concentration 7 ng/ml) in pre-warmed assay media (2 μL) for 30 minutes. After cytokine stimulation, cells were lysed with 2 μl of 5× AlphaLisa Lysis Buffer (PerkinElmer). The lysate was shaken at 900 rpm for 10 minutes at room temperature (RT). Phosphorylated STATS was measured via the pSTAT5 AlphaLisa kit (PerkinElmer). Freshly prepared acceptor bead mixture was dispensed onto lysate (5 ul) under green filtered <100 lux light. Plates were shaken at 900 rpm for 2 mins, briefly spun down, and incubated for 2 hrs at RT in the dark. Donor beads were dispensed (5 μl) under green filtered <100 lux light. Plates were shaken at 900 rpm for 2 mins, briefly spun down, and incubated overnight at RT in the dark. Luminescence was measured with excitation at 689 nm and emission at 570 nm using an EnVision plate reader (PerkinElmer) under green filtered <100 lux light.
(§6) To determine the inhibitory potency of test compounds in response to IL-2, the average emission intensity of beads bound to pSTATS was measured in primary CD4+ T cells isolated from murine splenocytes. IC50 values were determined from analysis of the inhibition curves of signal intensity vs compound concentration. Data are expressed as pIC50 (negative decadic logarithm IC50) values (mean±standard deviation).

[2] = tested on: IL-2 stimulated pSTAT5 in Tall-1 T cells (JAK3); assay: Cellular JAK3 potency assay: inhibition of IL-2 stimulated pSTAT5 in Tall-1 T cells; type: cell-based; settings: IL-2 300 ng/ml, pSTAT5 AlphaLisa, Tall-1 human T cell line; read-out: Tall-1 (pIC50) (converted)
Method: Assay 2: Cellular JAK3 Potency Assay: Inhibition of IL-2 Stimulated pSTAT5 in Tall-1 T Cells
The potency of test compounds for inhibition of interleukin-2 (IL-2) stimulated STATS phosphorylation was measured in the Tall-1 human T cell line (DSMZ) using AlphaLisa. Because IL-2 signals through JAK3, this assay provides a measure of JAK3 cellular potency.
as §5
Human T cells from the Tall-1 cell line were cultured in a 37° C., 5% CO2 humidified incubator in RPMI (Life Technologies) supplemented with 15% Heat Inactivated Fetal Bovine Serum (FBS, Life Technologies), 2 mM Glutamax (Life Technologies), 25 mM HEPES (Life Technologies) and 1× Pen/Strep (Life Technologies). Compounds were serially diluted in DMSO and dispensed acoustically to empty wells. Assay media (phenol red-free DMEM (Life Technologies) supplemented with 10% FBS (ATCC)) was dispensed (4 μL/well) and plates shaken at 900 rpm for 10 mins. Cells were seeded at 45,000 cells/well in assay media (4 μL/well), and incubated at 37° C., 5% CO2 for 1 hour, followed by the addition of IL-2 (R&D Systems; final concentration 300 ng/ml) in pre-warmed assay media ([…]) for 30 minutes. After cytokine stimulation, cells were lysed with 6 ul of 3× AlphaLisa Lysis Buffer (PerkinElmer) containing 1× PhosStop and Complete tablets (Roche). The lysate was shaken at 900 rpm for 10 minutes at room temperature (RT). Phosphorylated STATS was measured via the pSTAT5 AlphaLisa kit (PerkinElmer). Freshly prepared acceptor bead mixture was dispensed onto lysate (5 μL) under green filtered <100 lux light. Plates were shaken at 900 rpm for 2 mins, briefly spun down, and incubated for 2 hrs at RT in the dark. Donor beads were dispensed (5 μL) under green filtered <100 lux light. Plates were shaken at 900 rpm for 2 minutes, briefly spun down, and incubated overnight at RT in the dark. Luminescence was measured with excitation at 689 nm and emission at 570 nm using an EnVision plate reader (PerkinElmer) under green filtered <100 lux light.
as §6, with “pSTAT5” for “pSTATS”, “a human” for “primary CD4+”, “cell line.” for “cells isolated from murine splenocytes.”, “versus” for “vs”

Tyk2 = Tyk2 (Homo sapiens (Human), UniProt P29597); assay: Biochemical JAK and Tyk2 kinase assays (LanthaScreen): Tyk2; settings: 1 h pre-incubation, ATP at Km; pIC50 converted to pKi by Cheng-Prusoff
Method: as §1, §2, §3, §4

JAK1, sequence (P23458 whole entry): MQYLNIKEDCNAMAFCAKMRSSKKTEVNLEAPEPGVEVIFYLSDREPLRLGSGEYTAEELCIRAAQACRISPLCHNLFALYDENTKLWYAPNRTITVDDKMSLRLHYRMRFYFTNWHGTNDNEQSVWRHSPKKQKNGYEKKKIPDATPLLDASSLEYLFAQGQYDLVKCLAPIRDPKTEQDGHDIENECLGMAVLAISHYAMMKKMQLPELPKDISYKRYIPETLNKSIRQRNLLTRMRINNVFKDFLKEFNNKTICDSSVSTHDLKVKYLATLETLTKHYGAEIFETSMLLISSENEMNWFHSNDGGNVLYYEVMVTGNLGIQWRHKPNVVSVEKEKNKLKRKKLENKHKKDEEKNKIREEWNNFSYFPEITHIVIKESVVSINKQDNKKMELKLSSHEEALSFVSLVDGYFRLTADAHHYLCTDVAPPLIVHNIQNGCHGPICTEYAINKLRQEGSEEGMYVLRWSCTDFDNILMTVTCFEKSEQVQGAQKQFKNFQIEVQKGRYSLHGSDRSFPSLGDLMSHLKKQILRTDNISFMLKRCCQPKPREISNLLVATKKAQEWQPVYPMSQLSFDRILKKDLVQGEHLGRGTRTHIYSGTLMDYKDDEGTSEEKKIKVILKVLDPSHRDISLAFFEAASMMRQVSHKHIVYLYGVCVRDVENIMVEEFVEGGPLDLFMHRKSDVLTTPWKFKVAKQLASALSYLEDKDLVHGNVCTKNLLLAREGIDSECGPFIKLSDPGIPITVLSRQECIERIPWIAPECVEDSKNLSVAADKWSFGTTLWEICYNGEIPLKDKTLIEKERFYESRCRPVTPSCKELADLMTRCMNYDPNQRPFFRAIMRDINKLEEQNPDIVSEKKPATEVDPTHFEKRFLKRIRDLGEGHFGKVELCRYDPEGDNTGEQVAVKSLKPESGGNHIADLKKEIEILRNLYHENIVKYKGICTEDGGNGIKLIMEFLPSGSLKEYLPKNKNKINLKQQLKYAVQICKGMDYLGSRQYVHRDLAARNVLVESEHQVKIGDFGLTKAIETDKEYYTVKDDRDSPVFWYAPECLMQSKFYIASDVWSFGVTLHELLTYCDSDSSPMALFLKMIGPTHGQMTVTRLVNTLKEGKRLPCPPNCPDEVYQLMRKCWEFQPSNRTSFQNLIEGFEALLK
Tyk2, sequence (P29597 whole entry): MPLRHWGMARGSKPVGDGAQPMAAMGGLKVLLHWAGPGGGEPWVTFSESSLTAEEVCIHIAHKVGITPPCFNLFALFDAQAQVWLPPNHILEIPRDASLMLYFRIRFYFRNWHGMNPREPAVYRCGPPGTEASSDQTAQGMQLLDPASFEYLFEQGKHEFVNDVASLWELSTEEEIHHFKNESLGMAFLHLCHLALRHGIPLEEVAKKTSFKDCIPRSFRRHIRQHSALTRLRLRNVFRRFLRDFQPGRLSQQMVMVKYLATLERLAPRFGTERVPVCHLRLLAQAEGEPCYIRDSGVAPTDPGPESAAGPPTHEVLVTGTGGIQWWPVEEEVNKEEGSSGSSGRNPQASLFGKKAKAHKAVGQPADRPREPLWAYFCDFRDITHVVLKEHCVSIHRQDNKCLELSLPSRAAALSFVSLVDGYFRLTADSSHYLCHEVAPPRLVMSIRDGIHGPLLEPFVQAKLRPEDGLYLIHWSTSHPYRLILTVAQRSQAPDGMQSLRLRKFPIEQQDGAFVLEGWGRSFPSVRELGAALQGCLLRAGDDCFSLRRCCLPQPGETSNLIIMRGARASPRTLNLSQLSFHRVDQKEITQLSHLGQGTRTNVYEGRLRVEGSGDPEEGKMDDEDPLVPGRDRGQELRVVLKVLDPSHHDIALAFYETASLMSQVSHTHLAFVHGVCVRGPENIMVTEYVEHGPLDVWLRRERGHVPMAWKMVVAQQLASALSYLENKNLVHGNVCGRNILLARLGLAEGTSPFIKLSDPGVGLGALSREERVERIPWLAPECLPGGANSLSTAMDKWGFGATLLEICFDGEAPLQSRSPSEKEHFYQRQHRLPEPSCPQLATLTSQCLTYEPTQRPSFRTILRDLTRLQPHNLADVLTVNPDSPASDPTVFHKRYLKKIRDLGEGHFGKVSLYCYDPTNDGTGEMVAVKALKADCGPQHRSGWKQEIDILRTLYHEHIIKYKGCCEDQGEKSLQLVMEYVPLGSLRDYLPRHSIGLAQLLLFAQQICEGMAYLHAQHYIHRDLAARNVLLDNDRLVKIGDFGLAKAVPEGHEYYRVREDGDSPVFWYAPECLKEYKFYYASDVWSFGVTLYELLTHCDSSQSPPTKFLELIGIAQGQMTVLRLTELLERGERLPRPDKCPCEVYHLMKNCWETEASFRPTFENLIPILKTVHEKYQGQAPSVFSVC
JAK3, sequence (P52333 whole entry): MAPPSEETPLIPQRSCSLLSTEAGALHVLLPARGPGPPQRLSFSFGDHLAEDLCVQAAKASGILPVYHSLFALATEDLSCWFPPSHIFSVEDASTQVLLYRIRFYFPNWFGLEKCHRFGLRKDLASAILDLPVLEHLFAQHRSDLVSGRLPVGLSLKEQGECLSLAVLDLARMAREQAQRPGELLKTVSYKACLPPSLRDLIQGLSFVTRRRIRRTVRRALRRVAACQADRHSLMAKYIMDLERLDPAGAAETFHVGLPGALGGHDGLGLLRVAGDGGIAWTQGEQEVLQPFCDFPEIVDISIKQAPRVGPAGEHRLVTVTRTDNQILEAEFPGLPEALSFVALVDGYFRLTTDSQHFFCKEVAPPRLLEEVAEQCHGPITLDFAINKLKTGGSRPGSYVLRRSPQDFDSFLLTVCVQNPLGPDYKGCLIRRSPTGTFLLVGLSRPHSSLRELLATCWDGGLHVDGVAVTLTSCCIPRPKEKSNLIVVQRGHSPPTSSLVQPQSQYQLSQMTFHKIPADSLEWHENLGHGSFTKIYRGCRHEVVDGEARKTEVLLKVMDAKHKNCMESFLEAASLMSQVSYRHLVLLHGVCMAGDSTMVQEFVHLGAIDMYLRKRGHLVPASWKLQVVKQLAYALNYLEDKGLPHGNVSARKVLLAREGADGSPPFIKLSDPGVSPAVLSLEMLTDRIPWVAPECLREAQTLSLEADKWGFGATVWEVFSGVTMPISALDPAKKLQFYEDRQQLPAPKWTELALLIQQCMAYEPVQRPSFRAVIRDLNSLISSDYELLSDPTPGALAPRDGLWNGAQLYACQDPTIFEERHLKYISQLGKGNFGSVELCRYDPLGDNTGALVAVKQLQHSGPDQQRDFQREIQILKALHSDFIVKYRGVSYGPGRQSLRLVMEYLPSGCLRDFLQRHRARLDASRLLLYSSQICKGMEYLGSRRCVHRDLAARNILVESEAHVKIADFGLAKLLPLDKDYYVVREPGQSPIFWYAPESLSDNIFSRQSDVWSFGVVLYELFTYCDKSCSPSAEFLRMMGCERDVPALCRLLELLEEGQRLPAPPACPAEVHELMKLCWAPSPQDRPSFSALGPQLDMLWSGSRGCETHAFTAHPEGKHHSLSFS
JAK2, sequence (O60674 whole entry): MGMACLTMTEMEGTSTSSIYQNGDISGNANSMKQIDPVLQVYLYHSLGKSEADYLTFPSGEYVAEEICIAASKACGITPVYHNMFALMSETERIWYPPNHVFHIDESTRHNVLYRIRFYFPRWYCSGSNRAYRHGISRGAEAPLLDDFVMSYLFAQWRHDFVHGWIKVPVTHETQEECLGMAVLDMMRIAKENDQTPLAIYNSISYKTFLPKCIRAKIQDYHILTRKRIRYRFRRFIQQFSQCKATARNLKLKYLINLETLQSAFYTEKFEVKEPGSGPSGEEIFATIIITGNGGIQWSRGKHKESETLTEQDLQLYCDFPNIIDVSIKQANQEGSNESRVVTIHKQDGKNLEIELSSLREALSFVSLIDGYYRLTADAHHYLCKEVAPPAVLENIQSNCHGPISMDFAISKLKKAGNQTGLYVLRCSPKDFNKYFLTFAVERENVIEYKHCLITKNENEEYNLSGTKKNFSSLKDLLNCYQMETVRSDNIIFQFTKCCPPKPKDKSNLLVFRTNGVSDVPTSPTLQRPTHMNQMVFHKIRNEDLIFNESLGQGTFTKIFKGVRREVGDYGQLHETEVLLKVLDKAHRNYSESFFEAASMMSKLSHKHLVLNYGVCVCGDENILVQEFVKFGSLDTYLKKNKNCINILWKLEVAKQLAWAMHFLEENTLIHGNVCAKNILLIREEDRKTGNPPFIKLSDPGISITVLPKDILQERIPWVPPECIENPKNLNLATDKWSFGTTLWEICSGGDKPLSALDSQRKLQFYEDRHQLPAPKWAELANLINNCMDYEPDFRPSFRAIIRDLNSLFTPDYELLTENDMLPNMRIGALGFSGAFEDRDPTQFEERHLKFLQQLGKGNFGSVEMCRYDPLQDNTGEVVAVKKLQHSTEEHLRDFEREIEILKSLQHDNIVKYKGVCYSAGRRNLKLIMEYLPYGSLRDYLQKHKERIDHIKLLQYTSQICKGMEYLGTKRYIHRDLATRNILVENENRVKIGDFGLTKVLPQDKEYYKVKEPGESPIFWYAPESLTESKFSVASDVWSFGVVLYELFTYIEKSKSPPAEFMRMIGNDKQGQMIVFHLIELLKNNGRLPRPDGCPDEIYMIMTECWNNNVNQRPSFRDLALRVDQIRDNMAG

| Compound | JAK 2 (pKi) (JAK2) | JAK 1 (pKi) (JAK1) | Caco Kp 10^−6 cm/sec (Caco-2 cell monolayers) | Ki (JAK3) | JAK3 (pKi)-JAK1 (pKi) (JAK3) | IC50 [1] | IC50 [2] | Tyk 2 (pKi) (Tyk2) | JAK 3 (pKi) (JAK3) | Ki (JAK2; read-out: JAK 2 (pKi) (converted)) |
| --- | --- | --- | --- | --- | --- | --- | --- | --- | --- | --- |
| C=CC(=O)N1CC(COc2cc(-c3ccc(O)c(C)c3)cn3cncc23)C1 [Example 34] | E (E represents a pKi value of 7 or below (Ki of 100 nM or above)) | E (E represents a pKi value of 7 or below (Ki of 100 nM or above)) | B (B represents a value between 5×10^−6 and 10×10^−6 cm/sec) | 0.1 to 1 nM | A (A represents a value of 3 or above) | < 1000 nM | 31.6 to 200 nM | E (E represents a pKi value of 7 or below (Ki of 100 nM or above)) |  |  |
| C=CC(=O)N1CC(COc2cc(-c3c(F)cc(O)cc3F)cn3cncc23)C1 [Example 7, 1-(3-(((6-(2,6-difluoro-4-hydroxyphenyl)imidazo[1,5-a]pyridin-8-yl)oxy)methyl)azetidin-1-yl)prop-2-en-1-one] | E (E represents a pKi value of 7 or below (Ki of 100 nM or above)) | E (E represents a pKi value of 7 or below (Ki of 100 nM or above)) | B (B represents a value between 5×10^−6 and 10×10^−6 cm/sec) | 0.1 to 1 nM | A (A represents a value of 3 or above) | < 1000 nM | 31.6 to 200 nM | E (E represents a pKi value of 7 or below (Ki of 100 nM or above)) |  |  |
| C=CC(=O)N1CC(C(C)(C)Oc2cc(-c3ccc(O)cc3)cn3cncc23)C1 [Example 28] | E (E represents a pKi value of 7 or below (Ki of 100 nM or above)) | E (E represents a pKi value of 7 or below (Ki of 100 nM or above)) | A (A represents a value below 5×10^−6 cm/sec) |  | A (A represents a value of 3 or above) | < 1000 nM | 31.6 to 200 nM | E (E represents a pKi value of 7 or below (Ki of 100 nM or above)) | A (A represents a pKi value≥10 (Ki≤0.1 nM)) |  |
| C=CC(=O)N1CC(COc2cc(-c3ccc(O)c(F)c3)cn3cncc23)C1 [Example 20] | E (E represents a pKi value of 7 or below (Ki of 100 nM or above)) | E (E represents a pKi value of 7 or below (Ki of 100 nM or above)) | A (A represents a value below 5×10^−6 cm/sec) | 0.1 to 1 nM | A (A represents a value of 3 or above) | < 1000 nM | 31.6 to 200 nM | E (E represents a pKi value of 7 or below (Ki of 100 nM or above)) |  |  |
| C=CC(=O)N1CCC(Oc2cc(-c3ccc(O)cc3)cn3cncc23)C(F)(F)C1 (stereo not shown) [Example 14, 1-(3,3-difluoro-4-((6-(4-hydroxyphenyl)imidazo[1,5-a]pyridin-8-yl)oxy)piperidin-1-yl)prop-2-en-1-one] |  | E (E represents a pKi value of 7 or below (Ki of 100 nM or above)) | B (B represents a value between 5×10^−6 and 10×10^−6 cm/sec) |  | A (A represents a value of 3 or above) |  | ≤ 31.6 nM | E (E represents a pKi value of 7 or below (Ki of 100 nM or above)) | A (A represents a pKi value≥10 (Ki≤0.1 nM)) | 10 to 100 nM |
| C=CC(=O)N1CC(COc2cc(-c3cc(Cl)c(O)c(OC)c3)cn3cncc23)C1 [Example 9, 1-(3-(((6-(3-chloro-4-hydroxy-5-methoxyphenyl)imidazo[1,5-a]pyridin-8-yl)oxy)methyl)azetidin-1-yl)prop-2-en-1-one] | E (E represents a pKi value of 7 or below (Ki of 100 nM or above)) | E (E represents a pKi value of 7 or below (Ki of 100 nM or above)) | A (A represents a value below 5×10^−6 cm/sec) | 0.1 to 1 nM | A (A represents a value of 3 or above) | < 1000 nM | 31.6 to 200 nM | E (E represents a pKi value of 7 or below (Ki of 100 nM or above)) |  |  |
| C=CC(=O)N1CC(COc2cc(-c3ccc(O)cc3CC)cn3cncc23)C1 [Example 21] | E (E represents a pKi value of 7 or below (Ki of 100 nM or above)) | E (E represents a pKi value of 7 or below (Ki of 100 nM or above)) | B (B represents a value between 5×10^−6 and 10×10^−6 cm/sec) | 0.1 to 1 nM | A (A represents a value of 3 or above) |  | 31.6 to 200 nM | E (E represents a pKi value of 7 or below (Ki of 100 nM or above)) |  |  |
| C=CC(=O)N1CCC(COc2cc(-c3ccc(O)cc3)cn3cncc23)CC1 [Example 2, 1-(4-(((6-(4-hydroxyphenyl)imidazo[1,5-a]pyridin-8-yl)oxy)methyl)piperidin-1-yl)prop-2-en-1-one] | E (E represents a pKi value of 7 or below (Ki of 100 nM or above)) | E (E represents a pKi value of 7 or below (Ki of 100 nM or above)) | C (C represents a value between 10×10^−6 and 25×10^−6 cm/sec) | 0.1 to 1 nM | A (A represents a value of 3 or above) |  | 200 to 1000 nM | E (E represents a pKi value of 7 or below (Ki of 100 nM or above)) |  |  |
